Measured values as given in patent US20060153958A1, “Relating to flavour compositions” (priority 2003, published 2006).

Tests used:
Streptococcus mutans R9 [1] = experiment: Synergy of flavour material with xylitol in reducing acid production (glucose/xylitol broth pH test); format: cell-based; conditions: anaerobic incubation 18-24 hours, pH difference between broths
Protocol: Xylitol is a sugar substitute that has been used in many products as a non-cariogenic sweetener. The potential synergy between xylitol and a flavour material useful in the composition of the invention was investigated using a glucose/xylitol broth by the following method. Flavour materials were tested at 250 ppm unless otherwise stated.
(§1) 250 ml of PM broth (of formulation as described in Example 1(a) above) was charged to a Duran bottle bunged with a breathable stopper and inoculated with a loopful of Streptococcus mutans R9 (as above). The bacterial culture was then incubated anaerobically for 2-3 days at 37° C., followed by centrifugation at 3600 rpm for 10 minutes. The supernatant was decanted to waste. The pellets remaining were resuspended in 12 ml of 0.1% peptone and the optical density at 540 nm (OD540) measured and adjusted (if required) by diluting with fresh PM broth to between 0.2 and 0.3 to give a stock inoculum culture.
(§2) Broth was prepared by adding 4% (w/v) glucose to 0.3% (w/v) TSB broth (GTSB). The broth was sterilised by aseptically passing the solution through a 0.22 μm filter into a sterile bottle.
Control and flavour material incubations were prepared as described in Example 1(b) above. Xylitol synergy was investigated by adding 2.5 ml of stock inoculum culture to 2.5 ml of GTSB supplemented with 4% (w/v) xylitol. […]
(§3) After anaerobic incubation of the resulting mixtures for 18-24 hours, the pH of the suspensions was measured using a 476530M combination pH electrode (Mettler Toledo, 64 Boston Road, Beaumont Leys, Leicester, LE4 1AW), calibrated using pH 4 and pH 7 buffers. Results were recorded as the difference in pH change between broths.
If the pH of the incubated broth containing flavour material and xylitol was higher than that recorded for incubated broths containing either flavour material or xylitol, then this was considered to indicate that there was a synergy between the flavour material and xylitol in reducing the acid production of Streptococcus mutans. […]

Streptococcus mutans R9 [2] = experiment: Synergy of flavour material with fluoride in reducing acid production (bottle pH test); format: cell-based; conditions: flavour material at 250 ppm plus fluoride (NaF); 2% glucose; anaerobic incubation 18-24 hours; pH difference between broths
Protocol: as §1, §2
Control incubations were prepared by adding 2.5 ml of the stock inoculum culture (adjusted to an OD540 of 0.2-0.3) to 2.5 ml of GTSB containing 4% (w/v) glucose in 0.3% (w/v) TSB.
A test flavour material/flavour was diluted in the GTSB to give a stock solution of flavour material/flavour with a final concentration of 25,000 ppm (250 mg flavour material/flavour in 10 ml of GTSB).
Flavour material/flavour incubations were prepared by adding 2.5 ml of the stock inoculum culture to 2.45 ml of GTSB, and 50 μl of flavour material/flavour stock solution. Thus, flavour materials/flavours were tested at a final concentration of 250 ppm, for their efficacy in inhibiting acid production from 2% glucose.
The mixtures were then incubated anaerobically.
as §3, with “broths containing flavour material/flavour and an untreated control.” for “broths.”
Flavour materials useful in a flavour composition of the invention were tested at 250 ppm for their potential synergy with fluoride as described below.
Control and flavour material incubations were prepared as described in Example 1(b) above.
A fluoride stock solution (2,500 ppm F^−) was prepared by dissolving […] NaF in 10 ml of GTSB. For fluoride controls, 2.5 ml of stock inoculum culture was added to 2.48 ml of GTSB, and 20 μl of fluoride stock solution.
For flavour material and fluoride incubations, 2.5 ml of stock inoculum culture was added to 2.43 ml of GTSB, 50 μl of flavour material stock solution and 20 μl of fluoride stock solution.
The mixtures were incubated anaerobically.
as §3
If the pH of the incubated broth containing flavour material and fluoride was higher than that measured for incubated broths containing either flavour material or fluoride, then this was considered to indicate that there had been a synergistic effect between the flavour material and fluoride in reducing the acid production of Streptococcus mutans.

Compound | Synergy with Fluoride (Streptococcus mutans R9 [2]) | other results
Damascone |  | Synergy with Xylitol (Streptococcus mutans R9 [1]; flavour material at 250 ppm): ++ (Inhibition of acid production by an additional 0.25-0.49 pH units)
Cc1ccc(C(C)C)c(O)c1 [Thymol, thymol] | + (Inhibition of acid production by an additional 0.01-0.24 pH units) | 
CC=Cc1ccc(OC)cc1 [Anethole Synthetic, anethole] | ++++ (Inhibition of acid production by an additional 0.75 pH units or more (i.e. >0.75 pH units in addition to the effect of fluoride or flavour material alone)) | 
CC(=O)/C=C/C1C(C)=CCCC1(C)C (stereo not drawn) [Ionone Alpha, ionone alpha] |  | Synergy with Xylitol (Streptococcus mutans R9 [1]; flavour material at 125 ppm): ++++ (Inhibition of acid production by an additional 0.75 pH units or more (i.e. >0.75 pH units in addition to the effect of fluoride or flavour material alone))
CCCCCCCCCO [Alcohol C9, nonanol] |  | Synergy with Xylitol (Streptococcus mutans R9 [1]; flavour material at 62.5 ppm): +++ (Inhibition of acid production by an additional 0.50-0.74 pH units)
CC(C)=CCCC(C)=CC=O [Citral Natural, citral] | + (Inhibition of acid production by an additional 0.01-0.24 pH units) | 
CCCCCCCCCC=O [Aldehyde C10 (Decanal), decanal] | ++ (Inhibition of acid production by an additional 0.25-0.49 pH units) | 
CCCCCCCCCCO [Alcohol C10 (Decanol), decanol] | ++++ (Inhibition of acid production by an additional 0.75 pH units or more (i.e. >0.75 pH units in addition to the effect of fluoride or flavour material alone)) | 
O=C/C=C/c1ccccc1 [Cinnamic Aldehyde Extra, cinnamic aldehyde] | ++ (Inhibition of acid production by an additional 0.25-0.49 pH units) | 
